Assay results published in ChEMBL document CHEMBL1136033, “Effects of the incorporation of IBTM beta-turn mimetics into the dipeptoid CCK(1) receptor agonist PD 170292” (Bioorg Med Chem Lett, 2002).

How the values were obtained:
[1] = biological target: T1, Gastrin/cholecystokinin type B receptor (Rattus norvegicus, UniProt P30553); assay: Inhibition of [3H]propionyl-CCK-8 specific binding to rat cerebral cortex membranes Cholecystokinin type B receptor; format: cell membranes, Membrane
T1 sequence (P30553 whole entry): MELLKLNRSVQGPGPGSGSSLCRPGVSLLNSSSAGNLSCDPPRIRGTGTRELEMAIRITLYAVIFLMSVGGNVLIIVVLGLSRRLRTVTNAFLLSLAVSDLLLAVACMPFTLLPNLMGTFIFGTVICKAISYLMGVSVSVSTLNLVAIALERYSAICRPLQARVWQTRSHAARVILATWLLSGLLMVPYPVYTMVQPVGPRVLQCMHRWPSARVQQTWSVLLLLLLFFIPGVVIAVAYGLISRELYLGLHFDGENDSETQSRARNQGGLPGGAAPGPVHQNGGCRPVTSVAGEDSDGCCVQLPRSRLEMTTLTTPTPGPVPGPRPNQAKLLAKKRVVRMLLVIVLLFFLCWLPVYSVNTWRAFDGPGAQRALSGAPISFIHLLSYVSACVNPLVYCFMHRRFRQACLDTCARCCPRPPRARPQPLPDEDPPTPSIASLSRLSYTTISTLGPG

[2] = The compound was tested to antagonize the CCK-8 induced amylase secretion from pancreatic acini; format: functional
[3] = biological target: T2, Cholecystokinin receptor type A (Rattus norvegicus, UniProt P30551); assay: Inhibition of [3H]propionyl-CCK-8 specific binding to rat pancreatic Cholecystokinin type A receptor
T2 sequence (P30551 whole entry): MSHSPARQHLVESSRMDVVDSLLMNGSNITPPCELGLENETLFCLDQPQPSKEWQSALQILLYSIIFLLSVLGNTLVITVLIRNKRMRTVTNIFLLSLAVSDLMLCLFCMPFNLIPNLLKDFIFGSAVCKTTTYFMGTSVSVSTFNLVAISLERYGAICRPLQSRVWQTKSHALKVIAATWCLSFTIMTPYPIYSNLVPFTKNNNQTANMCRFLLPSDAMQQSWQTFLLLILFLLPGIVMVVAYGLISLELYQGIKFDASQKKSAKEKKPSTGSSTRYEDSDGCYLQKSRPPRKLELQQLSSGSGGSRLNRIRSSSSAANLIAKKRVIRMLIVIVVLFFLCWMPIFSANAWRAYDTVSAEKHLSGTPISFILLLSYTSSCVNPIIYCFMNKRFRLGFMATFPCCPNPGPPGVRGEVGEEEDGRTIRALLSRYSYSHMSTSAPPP

Row | IC50 [1] [nM] | IC50 [2] [nM] | IC50 [3] [nM] | SMILES
1 | 5800 | 196 | 8.2 | Cc1ccccc1NC(=O)NCCCC[C@@H](CC(=O)O)NC(=O)[C@H]1Cc2c([nH]c3ccccc23)[C@@H]2C[C@@H](NC(=O)OCc3ccccc3)C(=O)N12
2 | > 10000 |  | 324 | Cc1ccccc1NC(=O)NCCCC[C@@H](CC(=O)O)NC(=O)[C@@H]1Cc2c([nH]c3ccccc23)[C@H]2C[C@H](NC(=O)OCc3ccccc3)C(=O)N21
3 | > 10000 |  |  | O=C(N[C@H]1C[C@@H]2c3[nH]c4ccccc4c3C[C@@H](C(=O)N[C@@H](Cc3ccccc3)C(=O)O)N2C1=O)OCc1ccccc1
4 | 6.7 |  |  | Cc1ccccc1NC(=O)NCCCC[C@@H](CC(=O)O)NC(=O)[C@@](C)(Cc1c[nH]c2ccccc12)NC(=O)OC1C2CC3CC(C2)CC1C3 (some centres not stated) [PD-170292]
